Assay results reported in patent publication US11976083B2, “Inhibitors of peptidylarginine deiminases” (Gilead Sciences, Inc., priority 2020, dated 2024).

The compounds below were run against T1, human PAD4 (Homo sapiens, UniProt Q9UM07) (assay: In vitro PAD4 BAEE biochemical assay). Conditions: BAEE substrate 3 mM, 5 nM PAD4, 2 mM calcium chloride; geometric mean of multiple experiments.
T1 construct: human PAD4 (NM_012387), A2-P663, was PCR amplified; His-SUMO (N, cleaved yes); made in house; host or cells: E. coli BL21(DE3)
T1 sequence (Q9UM07 2-663): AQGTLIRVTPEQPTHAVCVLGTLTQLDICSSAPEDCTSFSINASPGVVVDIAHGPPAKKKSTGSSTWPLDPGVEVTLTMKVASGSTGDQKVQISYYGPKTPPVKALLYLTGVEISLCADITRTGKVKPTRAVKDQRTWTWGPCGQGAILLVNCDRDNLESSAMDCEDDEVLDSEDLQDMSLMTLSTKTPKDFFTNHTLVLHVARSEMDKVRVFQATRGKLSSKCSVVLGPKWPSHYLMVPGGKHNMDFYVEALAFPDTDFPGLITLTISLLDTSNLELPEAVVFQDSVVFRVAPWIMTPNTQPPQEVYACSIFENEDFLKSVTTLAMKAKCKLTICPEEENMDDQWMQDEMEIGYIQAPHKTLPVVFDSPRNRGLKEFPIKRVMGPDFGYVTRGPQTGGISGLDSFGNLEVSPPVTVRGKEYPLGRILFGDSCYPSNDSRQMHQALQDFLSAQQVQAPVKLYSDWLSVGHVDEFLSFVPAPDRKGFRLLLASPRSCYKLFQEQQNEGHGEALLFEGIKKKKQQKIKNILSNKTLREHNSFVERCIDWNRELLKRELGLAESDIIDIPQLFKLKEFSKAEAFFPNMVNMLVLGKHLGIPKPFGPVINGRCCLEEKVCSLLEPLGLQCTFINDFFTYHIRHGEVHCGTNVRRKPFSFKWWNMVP
Summary of the method: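 Recombinant human PAD4 (5 nM final) with 2 mM CaCl2 was preincubated with compound 30 min at 25 °C in MOPS buffer pH 7.6, then reacted with 3 mM BAEE for 2 h at 25 °C. After EDTA stop, released ammonia was detected by o-phthalaldehyde/DTT fluorescence (ex 405/em 535 nm); IC50 from four-parameter fit, geometric mean.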
An IC50 of 61 nM was found for `COc1cc(C(=O)N2[C@H]3CC[C@@H]2[C@H](N)C3)cc2nc(-c3cc4ccc5cc4n3CCCCCC[C@@](C)(OC)C(=O)N[C@@H]5C)n(C)c12` [Example 340, (8~{R},11~{R})-17-[5-[(1~{R},2~{R},4~{S})-2-amino-7-azabicyclo[2.2.1]heptane-7-carbonyl]-7-methoxy-1-methyl-benzimidazol-2-yl]-8-methoxy-8,11-dimethyl-1,10-diazatricyclo[10.5.2.0^{15,18}]nonadeca-12(19),13,15(18),16-tetraen-9-one] in this work. An IC50 of 59 nM was found for `COCC1(C)CCCCCCn2c(-c3nc4cc(C(=O)N5[C@H]6CC[C@@H]5[C@H](N)C6)cc(OC)c4n3C)cc3ccc(cc32)[C@@H](C)NC1=O` (stereo partly drawn) [Example 341, (11~{R})-17-[5-[(1~{R},2~{R},4~{S})-2-amino-7-azabicyclo[2.2.1]heptane-7-carbonyl]-7-methoxy-1-methyl-benzimidazol-2-yl]-8-(methoxymethyl)-8,11-dimethyl-1,10-diazatricyclo[10.5.2.0^{15,18}]nonadeca-12(19),13,15(18),16-tetraen-9-one] in this work. An IC50 of 43 nM was found for `COc1cc(C(=O)N2[C@H]3CC[C@@H]2[C@H](N)C3)cc2nc(-c3cc4ccc5cc4n3CCCOC[C@H]3C[C@H]3C(=O)N[C@@H]5C)n(C)c12` [Example 342, (2~{R},5~{R},7~{S})-14-[5-[(1~{R},2~{R},4~{S})-2-amino-7-azabicyclo[2.2.1]heptane-7-carbonyl]-7-methoxy-1-methyl-benzimidazol-2-yl]-2-methyl-9-oxa-3,13-diazatetracyclo[11.5.2.0^{5,7}.0^{16,20}] icosa-1(19),14,16(20),17-tetraen-4-one] in this work. An IC50 of 371 nM was found for `COc1cc(C(=O)N2CC[C@H]3OCCN[C@H]3C2)cc2nc(-c3cc4ccc5nc4n3CCCCCCC3(CC3)C(=O)N[C@@H]5C)n(C)c12` [Example 343, (11~{R})-17-[5-[(4~{a}~{S),8~{a}~{R})-2,3,4,4~{a},5,7,8,8~{a}-octahydropyrido[4,3-b][1,4]oxazine-6-carbonyl]-7-methoxy-1-methyl-benzimidazol-2-yl]-11-methyl-spiro[1,10,19-triazatricyclo[10.5.2.0^{15,18}]nonadeca-12(19),13,15(18),16-tetraene-8,1′-cyclopropane]-9-one] in this work. An IC50 of 51 nM was found for `COc1cc(C(=O)N[C@H]2CNCC[C@@H]2F)cc2nc(-c3cc4ccc5nc4n3CCCCCc3cnccc3C(=O)N[C@@H]5C)n(C)c12` [Example 344, ~{N}-[(3~{S},4~{S})-4-fluoro-3-piperidyl]-7-methoxy-1-methyl-2-[(2~{R})-2-methyl-4-oxo-3,8,16,22-tetrazatetracyclo[14.5.2.0^{5,10}.0^{19,23}]tricosa-1(22),5,7,9,17,19(23),20-heptaen-17-yl]benzimidazole-5-carboxamide] in this work. An IC50 of 60 nM was found for `COc1cc(C(=O)N[C@H]2CNCC[C@@H]2F)cc2nc(-c3cc4ccc5nc4n3CCCCCc3cccc(F)c3C(=O)N[C@@H]5C)n(C)c12` [Example 345, 2-[(2~{R})-6-fluoro-2-methyl-4-oxo-3,16,22-triazatetracyclo[14.5.2.0^{5,10}.0^{19,23)]tricosa-1(22),5,7,9,17,19(23),20-heptaen-17-yl]-~{N}-[(3~{S},4~{S})-4-fluoro-3-piperidyl]-7-methoxy-1-methyl-benzimidazole-5-carboxamide] in this work. An IC50 of 97 nM was found for `COc1cc(C(=O)N[C@H]2CNCC[C@@H]2F)cc2nc(-c3cc4ccc5nc4n3C[C@@H]3C[C@H]3CCc3ccccc3C(=O)N[C@@H]5C)n(C)c12` [Example 346, ~{N}-[(3~{S),4~{S})-4-fluoro-3-piperidyl]-7-methoxy-1-methyl-2-[(3~{R},5~{R},16~{R})-16-methyl-14-oxo-1,15,24-triazapentacyclo[15.5.2.0^{3,5}.0^{8,13}.0^ {20,23}]tetracosa-8,10,12,17(24),18,20(23),21-heptaen-22-yl]benzimidazole-5-carboxamide] in this work. An IC50 of 51 nM was found for `C[C@H]1NC(=O)c2ccccc2CCCCCn2c(-c3nc4cc(C(=O)N[C@H]5CNCC[C@@H]5F)c(F)cc4n3C3CC3)cc3ccc1nc32` [Example 347, 1-cyclopropyl-6-fluoro-~{N}-[(3~{S},4~{S})-4-fluoro-3-piperidyl]-2-[(2~{R})-2-methyl-4-oxo-3,16,22-triazatetracyclo[14.5.2.0^{5,10}.0^{19,23}]tricosa-1(22),5,7,9,17,19(23),20-heptaen-17-yl]benzimidazole-5-carboxamide] in this work. An IC50 of 66 nM was found for `C[C@H]1NC(=O)c2ccccc2CC[C@@H]2C[C@H]2Cn2c(-c3nc4cc(C(=O)N[C@H]5CNCC[C@@H]5F)c(F)cc4n3C3CC3)cc3ccc1nc32` [Example 348, 1-cyclopropyl-6-fluoro-~{N}-[(3~{S},4~{S})-4-fluoro-3-piperidyl]-2-[(3~{R},5~{R},16~{R})-16-methyl-14-oxo-1,15,24-triazapentacyclo[15.5.2.0^{3,5}.0^{8,13}.0^ {20,23}]tetracosa-8,10,12,17(24),18,20(23),21-heptaen-22-yl]benzimidazole-5-carboxamide] in this work. An IC50 of 34 nM was found for `C[C@H]1NC(=O)c2cnccc2CCCCCn2c(-c3nc4cc(C(=O)N[C@H]5CNCC[C@@H]5F)c(F)cc4n3C)cc3ccc1nc32` [Example 349, 6-fluoro-~{N}-[(3~{S},4~{S})-4-fluoro-3-piperidyl]-1-methyl-2-[(2~{R})-2-methyl-4-oxo-3,7,16,22-tetrazatetracyclo[14.5.2.0^{5,10}.0^{19,23}]tricosa-1(22),5,7,9,17,19(23),20-heptaen-17-yl]benzimidazole-5-carboxamide] in this work. An IC50 of 38 nM was found for `C[C@H]1NC(=O)c2ccncc2CCCCCn2c(-c3nc4cc(C(=O)N[C@H]5CNCC[C@@H]5F)c(F)cc4n3C)cc3ccc1nc32` [Example 350, 6-fluoro-~{N}-[(3~{S},4~{S})-4-fluoro-3-piperidyl]-1-methyl-2-[(2~{R})-2-methyl-4-oxo-3,8,16,22-tetrazatetracyclo[14.5.2.0^{5,10}.0^{19,23}]tricosa-1(22),5,7,9,17,19(23),20-heptaen-17-yl]benzimidazole-5-carboxamide] in this work. An IC50 of 97 nM was found for `C[C@H]1NC(=O)c2ccccc2CC[C@H]2C[C@@H]2Cn2c(-c3nc4cc(C(=O)N[C@H]5CNCC[C@@H]5F)c(F)cc4n3C)cc3ccc1nc32` [Example 351, 6-fluoro-~{N}-[(3~{S},4~{S})-4-fluoro-3-piperidyl]-1-methyl-2-[(3~{S},5~{S),16~{R})-16-methyl-14-oxo-1,15,24-triazapentacyclo[15.5.2.0^{3,5}.0^{8,13}.0^ {20,23}]tetracosa-8,10,12,17(24),18,20(23),21-heptaen-22-yl]benzimidazole-5-carboxamide] in this work. An IC50 of 53 nM was found for `C[C@H]1NC(=O)c2cccc(F)c2CCCCCn2c(-c3nc4cc(C(=O)N[C@H]5CNCC[C@@H]5F)c(F)cc4n3C)cc3ccc1nc32` [Example 352, 6-fluoro-2-[(2~{R})-9-fluoro-2-methyl-4-oxo-3,16,22-triazatetracyclo[14.5.2.0^{5,10).0^{19,23}]tricosa-1(22),5,7,9,17,19(23),20-heptaen-17-yl]-~{N}-[(3~{S),4~{S})-4-fluoro-3-piperidyl]-1-methyl-benzimidazole-5-carboxamide] in this work. An IC50 of 29 nM was found for `C[C@H]1NC(=O)c2ccncc2CCCCCn2c(-c3nc4cc(C(=O)N[C@H]5CNCC[C@@H]5F)c(F)cc4n3C3CC3)cc3ccc1nc32` [Example 353, 1-cyclopropyl-6-fluoro-~{N}-[(3~{S},4~{S})-4-fluoro-3-piperidyl]-2-[(2~{R})-2-methyl-4-oxo-3,8,16,22-tetrazatetracyclo[14.5.2.0^{5,10}.0^{19,23}]tricosa-1(22),5,7,9,17,19(23),20-heptaen-17-yl]benzimidazole-5-carboxamide] in this work. An IC50 of 26 nM was found for `C[C@H]1NC(=O)c2c(Cl)cncc2CCCCCn2c(-c3nc4cc(C(=O)N[C@H]5CNCC[C@@H]5F)c(F)cc4n3C3CC3)cc3ccc1nc32` [Example 354, 2-[(2~{R})-6-chloro-2-methyl-4-oxo-3,8,16,22-tetrazatetracyclo[14.5.2.0^{5,10}.0^{19,23}]tricosa-1(22),5,7,9,17,19(23),20-heptaen-17-yl]-1-cyclopropyl-6-fluoro- ~{N}-[(3~{S},4~{S})-4-fluoro-3-piperidyl]benzimidazole-5-carboxamide] in this work. An IC50 of 18 nM was found for `C[C@H]1NC(=O)c2c(F)cncc2CCCCCn2c(-c3nc4cc(C(=O)N[C@H]5CNCC[C@@H]5F)c(F)cc4n3C3CC3)cc3ccc1nc32` [Example 355, 1-cyclopropyl-6-fluoro-2-[(2~{R})-6-fluoro-2-methyl-4-oxo-3,8,16,22-tetrazatetracyclo[14.5.2.0^{5,10}.0^{19,23}]tricosa-1(22),5,7,9,17,19(23),20-heptaen-17-yl]~{N}-[(3~{S},4~{S})-4-fluoro-3-piperidyl]benzimidazole-5-carboxamide] in this work. An IC50 of 37 nM was found for `C[C@H]1NC(=O)c2cc(Cl)ncc2CCCCCn2c(-c3nc4cc(C(=O)N[C@H]5CNCC[C@@H]5F)c(F)cc4n3C3CC3)cc3ccc1nc32` [Example 356, 2-[(2~{R})-7-chloro-2-methyl-4-oxo-3,8,16,22-tetrazatetracyclo[14.5.2.0^{5,10).0^{19,23}]tricosa-1(22),5,7,9,17,19(23),20-heptaen-17-yl]-1-cyclopropyl-6-fluoro-~ {N}-[(3~{S},4~{S})-4-fluoro-3-piperidyl]benzimidazole-5-carboxamide] in this work. An IC50 of 31 nM was found for `C[C@H]1NC(=O)c2cnc(Cl)cc2CCCCCn2c(-c3nc4cc(C(=O)N[C@H]5CNCC[C@@H]5F)c(F)cc4n3C3CC3)cc3ccc1nc32` [Example 357, 2-[(2~{R})-8-chloro-2-methyl-4-oxo-3,7,16,22-tetrazatetracyclo[14.5.2.0^{5,10}.0^{19,23}]tricosa-1(22),5,7,9,17,19(23),20-heptaen-17-yl]-1-cyclopropyl-6-fluoro-~ {N}-[(3~{S},4~{S})-4-fluoro-3-piperidyl]benzimidazole-5-carboxamide] in this work.
